# Assays:
# [1] = system: A. baumannii ATCC 17978 (SEN) and A. baumannii ATCC BAA-1605 (MDR); assay: Adaptive laboratory evolution (ALE), relative MIC of evolved lines; assay type: cell-based, Acinetobacter baumannii
# Source text: (§1) Using the same set of bacterial strains, we initiated adaptive laboratory evolution with the aim to maximize the level of antibiotic resistance in the populations achieved during a longer, but fixed time period.
# (§2) An established protocol for adaptive laboratory evolution[46],[73] was followed to propagate populations with the highest resistance levels. Starting with an antibiotic concentration that caused approximately 50% growth inhibition, ten parallel populations for each antibiotic-ancestor strain combination were grown for 72 hours at 37 °C with continuous shaking (300 RPM). MHB broth medium was used unless stated otherwise. After each incubation, 20 µl of each culture was transferred to four new wells containing fresh medium with increasing antibiotic concentrations (0.5×, 1×, 1.5×, and 2.5× the previous concentration) in a chessboard layout to monitor potential cross-contamination. Growth was monitored by measuring OD600 using a Biotek Synergy 2 microplate reader, and only populations grown in the highest drug concentration with an OD600 > 0.2 were transferred further.
# (§3) A robotic liquid handling system was used to automatically prepare a 11 to 16-step serial dilution in 384-well microtiter plates (Greiner). A final concentration of 5 × 10^5 bacterial cells per mL were inoculated into each well containing 60 µL MHB medium. Bacterial cultures were incubated at 37 °C with continuous shaking (Infors shaker, 900 rpm with 3 mm throw) for 18 hours (2 replicates from each). Cell growth was monitored by measuring the optical density (OD600 values, using Biotek Synergy microplate reader). MIC was defined as the antibiotic concentration of complete growth inhibition (i.e., OD600 < 0.05). Relative MIC was calculated as follows:1 relativeMIC=MICevolved/MICancestor […]
# (§4) Supplementary Figure 4. Resistance levels following adaptive laboratory evolution across bacterial strains. The level of resistance was measured as the fold change in relative MIC between evolved and ancestral strains after ~60 days of adaptive laboratory evolution. Data are grouped by bacterial strain (A. baumannii (AB), E. coli (EC), K. pneumoniae (KP), and P. aeruginosa (PA)) and categorized as either multidrug-resistant (MDR) or sensitive (SEN). Each data point represents a laboratory evolved line, and boxplots show the median, first and third quartiles, with whiskers indicating the 5th and 95th percentiles.
# (§5) Statistical analysis was performed using two-sided Dunn’s post-hoc test with Benjamini-Hochberg correction for multiple comparisons (****/ ***/ **/ * indicates p < 0.0001/ 0.001/ 0.01/ 0.05). For detailed information on antibiotic and bacterial species, see Supplementary Table 1. For mode of action groups, refer to Table 1. Source data are provided as a Source Data file.
# [2] = system: E. coli ATCC 25922 (SEN) and E. coli NCTC13846 (MDR); assay: as above; assay type: cell-based, Escherichia coli
# Source text: as §1, §2, §3, §4, §5
# (1 picture or pasted object on this page, not shown here)
compound,measurement,setting,value
CN(C)[C@@H]1C(O)=C(C(N)=O)C(=O)[C@@]2(O)C(O)=C3C(=O)c4c(O)c(NC(=O)CN5CCCC5)cc(F)c4C[C@H]3C[C@@H]12 [Eravacycline],Relative MIC,"[1]; AB-MDR (ATCC BAA 1605), evolved line 1, MIC of evolved line / MIC of ancestor",16
same,Relative MIC,"[1]; AB-MDR (ATCC BAA 1605), evolved line 2, MIC of evolved line / MIC of ancestor",32
same,Relative MIC,"[1]; AB-MDR (ATCC BAA 1605), evolved line 3, MIC of evolved line / MIC of ancestor",32
same,Relative MIC,"[1]; AB-MDR (ATCC BAA 1605), evolved line 4, MIC of evolved line / MIC of ancestor",32
same,Relative MIC,"[1]; AB-MDR (ATCC BAA 1605), evolved line 5, MIC of evolved line / MIC of ancestor",16
same,Relative MIC,"[1]; AB-MDR (ATCC BAA 1605), evolved line 6, MIC of evolved line / MIC of ancestor",32
same,Relative MIC,"[1]; AB-MDR (ATCC BAA 1605), evolved line 7, MIC of evolved line / MIC of ancestor",32
same,Relative MIC,"[1]; AB-MDR (ATCC BAA 1605), evolved line 8, MIC of evolved line / MIC of ancestor",32
same,Relative MIC,"[1]; AB-MDR (ATCC BAA 1605), evolved line 9, MIC of evolved line / MIC of ancestor",32
same,Relative MIC,"[1]; AB-MDR (ATCC BAA 1605), evolved line 10, MIC of evolved line / MIC of ancestor",32
same,Relative MIC (log10),"[1]; AB-MDR (Acinetobacter baumannii ATCC BAA 1605), evolved line 2 adapted to the named antibiotic",1.505
same,Relative MIC (log10),"[1]; AB-MDR (Acinetobacter baumannii ATCC BAA 1605), evolved line 3 adapted to the named antibiotic",1.505
same,Relative MIC (log10),"[1]; AB-MDR (Acinetobacter baumannii ATCC BAA 1605), evolved line 4 adapted to the named antibiotic",1.505
same,Relative MIC (log10),"[1]; AB-MDR (Acinetobacter baumannii ATCC BAA 1605), evolved line 6 adapted to the named antibiotic",1.505
same,Relative MIC (log10),"[1]; AB-MDR (Acinetobacter baumannii ATCC BAA 1605), evolved line 10 adapted to the named antibiotic",1.505
same,Relative MIC,"[1]; AB-SEN (ATCC 17978), evolved line 1, MIC of evolved line / MIC of ancestor",64
same,Relative MIC,"[1]; AB-SEN (ATCC 17978), evolved line 2, MIC of evolved line / MIC of ancestor",128
same,Relative MIC,"[1]; AB-SEN (ATCC 17978), evolved line 3, MIC of evolved line / MIC of ancestor",128
same,Relative MIC,"[1]; AB-SEN (ATCC 17978), evolved line 4, MIC of evolved line / MIC of ancestor",128
same,Relative MIC,"[1]; AB-SEN (ATCC 17978), evolved line 5, MIC of evolved line / MIC of ancestor",128
same,Relative MIC,"[1]; AB-SEN (ATCC 17978), evolved line 6, MIC of evolved line / MIC of ancestor",128
same,Relative MIC,"[1]; AB-SEN (ATCC 17978), evolved line 7, MIC of evolved line / MIC of ancestor",128
same,Relative MIC,"[1]; AB-SEN (ATCC 17978), evolved line 8, MIC of evolved line / MIC of ancestor",64
same,Relative MIC,"[1]; AB-SEN (ATCC 17978), evolved line 9, MIC of evolved line / MIC of ancestor",128
same,Relative MIC,"[1]; AB-SEN (ATCC 17978), evolved line 10, MIC of evolved line / MIC of ancestor",128
same,Relative MIC (log10),"[1]; AB-SEN (Acinetobacter baumannii ATCC 17978), evolved line 2 adapted to the named antibiotic",2.107
same,Relative MIC (log10),"[1]; AB-SEN (Acinetobacter baumannii ATCC 17978), evolved line 4 adapted to the named antibiotic",2.107
same,Relative MIC (log10),"[1]; AB-SEN (Acinetobacter baumannii ATCC 17978), evolved line 6 adapted to the named antibiotic",2.107
same,Relative MIC (log10),"[1]; AB-SEN (Acinetobacter baumannii ATCC 17978), evolved line 8 adapted to the named antibiotic",1.806
same,Relative MIC (log10),"[1]; AB-SEN (Acinetobacter baumannii ATCC 17978), evolved line 9 adapted to the named antibiotic",2.107
same,Relative MIC,"[1]; Acinetobacter baumannii ATCC 17978 (AB-SEN), evolved line 1",64
same,Relative MIC,"[1]; Acinetobacter baumannii ATCC 17978 (AB-SEN), evolved line 2",128
same,Relative MIC,"[1]; Acinetobacter baumannii ATCC 17978 (AB-SEN), evolved line 3",128
same,Relative MIC,"[1]; Acinetobacter baumannii ATCC 17978 (AB-SEN), evolved line 4",128
same,Relative MIC,"[1]; Acinetobacter baumannii ATCC 17978 (AB-SEN), evolved line 5",128
same,Relative MIC,"[1]; Acinetobacter baumannii ATCC 17978 (AB-SEN), evolved line 6",128
same,Relative MIC,"[1]; Acinetobacter baumannii ATCC 17978 (AB-SEN), evolved line 7",128
same,Relative MIC,"[1]; Acinetobacter baumannii ATCC 17978 (AB-SEN), evolved line 8",64
same,Relative MIC,"[1]; Acinetobacter baumannii ATCC 17978 (AB-SEN), evolved line 9",128
same,Relative MIC,"[1]; Acinetobacter baumannii ATCC 17978 (AB-SEN), evolved line 10",128
same,Relative MIC,"[1]; Acinetobacter baumannii ATCC BAA 1605 (AB-MDR), evolved line 2",32
same,Relative MIC,"[1]; Acinetobacter baumannii ATCC BAA 1605 (AB-MDR), evolved line 4",32
same,Relative MIC,"[1]; Acinetobacter baumannii ATCC BAA 1605 (AB-MDR), evolved line 5",16
same,Relative MIC,"[1]; Acinetobacter baumannii ATCC BAA 1605 (AB-MDR), evolved line 6",32
same,Relative MIC,"[1]; Acinetobacter baumannii ATCC BAA 1605 (AB-MDR), evolved line 7",32
same,Relative MIC,"[1]; Acinetobacter baumannii ATCC BAA 1605 (AB-MDR), evolved line 8",32
same,Relative MIC,"[1]; Acinetobacter baumannii ATCC BAA 1605 (AB-MDR), evolved line 9",32
same,Relative MIC,"[1]; Acinetobacter baumannii ATCC BAA 1605 (AB-MDR), evolved line 10",32
same,Relative MIC,"[1]; Acinetobacter baumannii ATCC BAA 1605 (AB-MDR), evolved line 1",16
same,Relative MIC,"[1]; Acinetobacter baumannii ATCC BAA 1605 (AB-MDR), evolved line 3",32
same,Relative MIC (log10),"[2]; EC-MDR (Escherichia coli NCTC 13846), evolved line 1 adapted to the named antibiotic",1.505
same,Relative MIC (log10),"[2]; EC-MDR (Escherichia coli NCTC 13846), evolved line 3 adapted to the named antibiotic",1.204
same,Relative MIC (log10),"[2]; EC-MDR (Escherichia coli NCTC 13846), evolved line 4 adapted to the named antibiotic",1.204
same,Relative MIC (log10),"[2]; EC-MDR (Escherichia coli NCTC 13846), evolved line 7 adapted to the named antibiotic",1.204
same,Relative MIC (log10),"[2]; EC-MDR (Escherichia coli NCTC 13846), evolved line 9 adapted to the named antibiotic",1.505
same,Relative MIC,"[2]; EC-MDR (NCTC 13846), evolved line 1, MIC of evolved line / MIC of ancestor",32
same,Relative MIC,"[2]; EC-MDR (NCTC 13846), evolved line 2, MIC of evolved line / MIC of ancestor",16
same,Relative MIC,"[2]; EC-MDR (NCTC 13846), evolved line 3, MIC of evolved line / MIC of ancestor",16
same,Relative MIC,"[2]; EC-MDR (NCTC 13846), evolved line 4, MIC of evolved line / MIC of ancestor",16
same,Relative MIC,"[2]; EC-MDR (NCTC 13846), evolved line 5, MIC of evolved line / MIC of ancestor",8
same,Relative MIC,"[2]; EC-MDR (NCTC 13846), evolved line 7, MIC of evolved line / MIC of ancestor",16
same,Relative MIC,"[2]; EC-MDR (NCTC 13846), evolved line 8, MIC of evolved line / MIC of ancestor",16
same,Relative MIC,"[2]; EC-MDR (NCTC 13846), evolved line 9, MIC of evolved line / MIC of ancestor",32
same,Relative MIC,"[2]; EC-MDR (NCTC 13846), evolved line 10, MIC of evolved line / MIC of ancestor",8
same,Relative MIC,"[2]; EC-SEN (ATCC 25922), evolved line 1, MIC of evolved line / MIC of ancestor",64
same,Relative MIC,"[2]; EC-SEN (ATCC 25922), evolved line 2, MIC of evolved line / MIC of ancestor",16
same,Relative MIC (log10),"[2]; EC-SEN (Escherichia coli ATCC 25922), evolved line 1 adapted to the named antibiotic",1.806
same,Relative MIC (log10),"[2]; EC-SEN (Escherichia coli ATCC 25922), evolved line 4 adapted to the named antibiotic",1.204
same,Relative MIC (log10),"[2]; EC-SEN (Escherichia coli ATCC 25922), evolved line 7 adapted to the named antibiotic",1.204
same,Relative MIC (log10),"[2]; EC-SEN (Escherichia coli ATCC 25922), evolved line 8 adapted to the named antibiotic",1.204
same,Relative MIC,"[2]; EC-SEN, Escherichia coli ATCC 25922, evolved line 3 versus ancestor",8
same,Relative MIC,"[2]; EC-SEN, Escherichia coli ATCC 25922, evolved line 4 versus ancestor",16
same,Relative MIC,"[2]; EC-SEN, Escherichia coli ATCC 25922, evolved line 6 versus ancestor",8
same,Relative MIC,"[2]; EC-SEN, Escherichia coli ATCC 25922, evolved line 7 versus ancestor",16
same,Relative MIC,"[2]; EC-SEN, Escherichia coli ATCC 25922, evolved line 8 versus ancestor",16
same,Relative MIC,"[2]; EC-SEN, Escherichia coli ATCC 25922, evolved line 9 versus ancestor",16
same,Relative MIC,"[2]; EC-SEN, Escherichia coli ATCC 25922, evolved line 10 versus ancestor",32
same,Relative MIC,"[2]; Escherichia coli ATCC 25922 (EC-SEN), evolved line 1",64
same,Relative MIC,"[2]; Escherichia coli ATCC 25922 (EC-SEN), evolved line 2",16
same,Relative MIC,"[2]; Escherichia coli ATCC 25922 (EC-SEN), evolved line 3",8
same,Relative MIC,"[2]; Escherichia coli ATCC 25922 (EC-SEN), evolved line 4",16
same,Relative MIC,"[2]; Escherichia coli ATCC 25922 (EC-SEN), evolved line 6",8
same,Relative MIC,"[2]; Escherichia coli ATCC 25922 (EC-SEN), evolved line 7",16
same,Relative MIC,"[2]; Escherichia coli ATCC 25922 (EC-SEN), evolved line 8",16
same,Relative MIC,"[2]; Escherichia coli ATCC 25922 (EC-SEN), evolved line 9",16
same,Relative MIC,"[2]; Escherichia coli ATCC 25922 (EC-SEN), evolved line 10",32
same,Relative MIC,"[2]; Escherichia coli NCTC 13846 (EC-MDR), evolved line 1",32
same,Relative MIC,"[2]; Escherichia coli NCTC 13846 (EC-MDR), evolved line 2",16
same,Relative MIC,"[2]; Escherichia coli NCTC 13846 (EC-MDR), evolved line 3",16
same,Relative MIC,"[2]; Escherichia coli NCTC 13846 (EC-MDR), evolved line 4",16
same,Relative MIC,"[2]; Escherichia coli NCTC 13846 (EC-MDR), evolved line 5",8
same,Relative MIC,"[2]; Escherichia coli NCTC 13846 (EC-MDR), evolved line 7",16
same,Relative MIC,"[2]; Escherichia coli NCTC 13846 (EC-MDR), evolved line 8",16
same,Relative MIC,"[2]; Escherichia coli NCTC 13846 (EC-MDR), evolved line 9",32
same,Relative MIC,"[2]; Escherichia coli NCTC 13846 (EC-MDR), evolved line 10",8
